# Laboratory results reported in ChEMBL document CHEMBL1275273, “QSAR prediction of D2 receptor antagonistic activity of 6-methoxy benzamides” (Eur J Med Chem, 2010).
# Target: D(2) dopamine receptor (Homo sapiens, UniProt P14416)
# Experiment: Antagonist activity at dopamine D2 receptor
# Assay type: functional
# Sequence of D(2) dopamine receptor (P14416 whole entry): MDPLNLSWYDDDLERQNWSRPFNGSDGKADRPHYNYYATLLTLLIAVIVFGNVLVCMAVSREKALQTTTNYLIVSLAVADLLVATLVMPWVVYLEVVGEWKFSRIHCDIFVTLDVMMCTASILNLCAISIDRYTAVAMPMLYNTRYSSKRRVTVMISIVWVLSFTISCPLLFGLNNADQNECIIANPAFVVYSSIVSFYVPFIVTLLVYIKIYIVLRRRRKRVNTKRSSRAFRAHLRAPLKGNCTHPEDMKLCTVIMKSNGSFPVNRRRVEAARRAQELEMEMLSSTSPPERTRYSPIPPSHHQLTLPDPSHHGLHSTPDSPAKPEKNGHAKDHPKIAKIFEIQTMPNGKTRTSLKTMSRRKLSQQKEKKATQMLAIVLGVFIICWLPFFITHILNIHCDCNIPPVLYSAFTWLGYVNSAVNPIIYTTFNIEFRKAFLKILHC
row,Compound,IC50 [nM]
1,CCN1CCC[C@H]1CNC(=O)c1cc(Cl)ccc1OC,257
2,CCN1CCC[C@H]1CNC(=O)c1cc(Br)ccc1OC,45.7
3,CCN1CCC[C@H]1CNC(=O)c1cccc(O)c1OC,316
4,CCN1CCC[C@H]1CNC(=O)c1c(OC)c(O)cc(I)c1OC,0.288
5,CCN1CCC[C@H]1CNC(=O)c1c(OC)ccc(SC)c1OC,1.1
6,CCc1cc(O)c(OC)c(C(=O)NC[C@@H]2CCCN2CC)c1OC,1.29
7,CCCCc1ccc(OC)c(C(=O)NC[C@@H]2CCCN2CC)c1OC,2.69
8,CCCc1ccc(OC)c(C(=O)NC[C@@H]2CCCN2CC)c1,67.6
9,CCN1CCC[C@H]1CNC(=O)c1c(OC)ccc(Cl)c1Cl,20
10,CCN1CCC[C@H]1CNC(=O)c1c(OC)ccc(Cl)c1Br,5.62
11,CCc1ccc(OC)c(C(=O)NC[C@@H]2CCCN2CC)c1Cl,4.17
12,CCN1CCC[C@H]1CNC(=O)c1c(Cl)ccc(O)c1OC,64.6
13,CCN1CCC[C@H]1CNC(=O)c1c(OC)ccc(O)c1OC,8.71
14,CCN1CCC[C@H]1CNC(=O)c1cc(F)cc(O)c1OC,363
15,CCN1CCC[C@H]1CNC(=O)c1cc(Cl)cc(O)c1OC,38.9
16,CCN1CCC[C@H]1CNC(=O)c1c(Br)c(Cl)cc(O)c1OC,57.5
17,CCc1c(Cl)cc(O)c(OC)c1C(=O)NC[C@@H]1CCCN1CC,12
18,CCN1CCC[C@H]1CNC(=O)c1cc(Br)cc(O)c1OC,8.32
19,CCN1CCC[C@H]1CNC(=O)c1c(Cl)c(Br)cc(O)c1OC,17

row,Compound,IC50 [nM]
1,CCN1CCC[C@H]1CNC(=O)c1c(Br)c(Br)cc(O)c1OC,25.7
2,CCN1CCC[C@H]1CNC(=O)c1c(OC)c(O)cc(Br)c1OC,1.41
3,CCN1CCC[C@H]1CNC(=O)c1c(OC)c(O)cc(Br)c1[N+](=O)[O-],186
4,CCN1CCC[C@H]1CNC(=O)c1cc(I)cc(O)c1OC,3.02
5,CCN1CCC[C@H]1CNC(=O)c1c(Cl)c(C)cc(O)c1OC,25.7
6,CCN1CCC[C@H]1CNC(=O)c1c(C)c(C)cc(O)c1OC,7.76
7,CCc1cc(O)c(OC)c(C(=O)NC[C@@H]2CCCN2CC)c1,2.88
8,CCc1cc(O)c(OC)c(C(=O)NC[C@@H]2CCCN2CC)c1F,1.51
9,CCc1cc(O)c(OC)c(C(=O)NC[C@@H]2CCCN2CC)c1Cl,0.912
10,CCc1cc(O)c(OC)c(C(=O)NC[C@@H]2CCCN2CC)c1Br,2.29
11,CCCc1cc(O)c(OC)c(C(=O)NC[C@@H]2CCCN2CC)c1,0.501
12,CCN1CCC[C@H]1CNC(=O)c1cc(OC)cc(O)c1OC,204
13,CCN1CCC[C@H]1CNC(=O)c1c(Br)c(OC)cc(O)c1OC,67.6
14,CCCc1cc(O)c(OC)c(C(=O)NC[C@@H]2CCCN2CC)c1Cl,3.24
15,CCN1CCC[C@H]1CNC(=O)c1c(Br)c(C)cc(O)c1OC,5.5
16,CCN1CCC[C@H]1CNC(=O)c1c(OC)ccc(C)c1OC,5.25
17,CCc1c(Br)cc(O)c(OC)c1C(=O)NC[C@@H]1CCCN1CC,17
18,CCc1cc(O)c(OC)c(C(=O)NC[C@@H]2CCCN2CC)c1CC,1.78
19,CCc1ccc(OC)c(C(=O)NC[C@@H]2CCCN2CC)c1,39.8

row,Compound,IC50 [nM]
1,CCN1CCC[C@H]1CNC(=O)c1c(Cl)c(Cl)cc(O)c1OC,32.4
2,CCN1CCC[C@H]1CNC(=O)c1c(Cl)c(OC)cc(O)c1OC,70.8
3,CCN1CCC[C@H]1CNC(=O)c1c(Br)ccc(O)c1OC,56.2
4,CCN1CCC[C@H]1CNC(=O)c1c(C)c(Cl)cc(O)c1OC,11
5,CCN1CCC[C@H]1CNC(=O)c1c(OC)c(O)cc(Cl)c1OC,1.7
6,CCN1CCC[C@H]1CNC(=O)c1c(OC)ccc(Br)c1Br,7.94
7,CCc1ccc(OC)c(C(=O)NC[C@@H]2CCCN2CC)c1Br,11
8,CCN1CCC[C@H]1CNC(=O)c1c(F)c(Br)cc(O)c1OC,7.08
9,CCN1CCC[C@H]1CNC(=O)c1c(C)c(Br)cc(O)c1OC,11
10,CCN1CCC[C@H]1CNC(=O)c1cc(C)cc(O)c1OC,19.1
11,CCCc1cc(O)c(OC)c(C(=O)NC[C@@H]2CCCN2CC)c1C,5.01
12,CCCc1c(Cl)cc(O)c(OC)c1C(=O)NC[C@@H]1CCCN1CC,110
13,CCc1ccc(O)c(OC)c1C(=O)NC[C@@H]1CCCN1CC,123
14,CCCc1c(C)cc(O)c(OC)c1C(=O)NC[C@@H]1CCCN1CC,141
15,CCN1CCC[C@H]1CNC(=O)c1cc([N+](=O)[O-])cc(O)c1OC,3020
16,CCN1CCC[C@H]1CNC(=O)c1c(OC)ccc(I)c1OC,0.676
17,CCN1CCC[C@H]1CNC(=O)c1c(OC)cccc1OC,52.5
18,CCc1ccc(OC)c(C(=O)NC[C@@H]2CCCN2CC)c1OC,1.29
19,CCN1CCC[C@H]1CNC(=O)c1c(OC)ccc(Br)c1O,10
